Measurements taken from patent EP1935986B1, “Luminogenic and fluorogenic compounds and methods to detect molecules or conditions” (priority 2005, dated 2006).

Biological target: T1, CYP1A2 (Homo sapiens, UniProt P05177)
T1 construct: purchased Discovery Labware (BD/Gentest); host or cells: insect cell expression system (membrane fractions)
T1 sequence (P05177 2-516 limits assumed): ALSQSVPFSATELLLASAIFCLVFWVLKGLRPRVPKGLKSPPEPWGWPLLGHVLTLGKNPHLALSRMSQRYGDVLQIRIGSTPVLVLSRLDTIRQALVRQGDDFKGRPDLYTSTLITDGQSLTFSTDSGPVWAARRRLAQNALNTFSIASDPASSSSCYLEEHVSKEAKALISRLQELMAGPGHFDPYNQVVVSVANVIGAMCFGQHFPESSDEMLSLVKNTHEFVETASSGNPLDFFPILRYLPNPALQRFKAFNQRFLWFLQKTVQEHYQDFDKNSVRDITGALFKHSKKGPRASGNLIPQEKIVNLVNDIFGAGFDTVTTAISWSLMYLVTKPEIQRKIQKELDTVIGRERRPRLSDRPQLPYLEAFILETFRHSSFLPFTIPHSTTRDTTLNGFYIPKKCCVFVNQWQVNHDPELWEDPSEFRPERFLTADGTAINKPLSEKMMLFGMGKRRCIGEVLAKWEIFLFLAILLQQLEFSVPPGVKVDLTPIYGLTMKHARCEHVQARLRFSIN
Assay: Two-step luminescent P450 screen of luciferin derivatives
Type: biochemical
Details: 50 µM substrate, 1 pmole P450; result in words
Procedure: P450s are Supersomes™ purchased from Discovery Labware (BD/Gentest). […] HLM is human liver microsomes.
1X substrate concentration: 50 µM.

| SMILES | P450 activity / selectivity with the derivative as substrate |
| --- | --- |
| COc1ccc2nc(C3=N[C@@H](C(=O)O)CS3)ccc2c1 [Quinolylluciferin 6-methyl ether, 2-(6-methoxyquinolin-2-yl)-4,5-dihydrothiazole-4-carboxylate] | preferred substrate |
| COc1ccc2nc(C3=N[C@@H](C(=O)NN)CS3)sc2c1 [luciferin-6-methylether hydrazide, Hydrazide of luciferin methyl ether] | good selectivity |
